Measured values from patent US10294202B2, “Pyrrolidinones as herbicides” (FMC Corporation, priority 2013, dated 2019).

Columns and labels:
oat, wild = assay: Test D pre-/postemergence herbicide test; format: in vivo, Avena fatua; conditions: for Plant response rating, Oat, Wild: Preemergence, scale 0 to 100 (0 no effect, 100 complete control); for Plant response rating: Postemergence, Oat, Wild, scale 0 to 100
Source text: Seeds of plant species selected from bluegrass (annual bluegrass, Poa annua), blackgrass (Alopecurus myosuroides), canarygrass (littleseed canarygrass, Phalaris minor), chickweed (common chickweed, Stellaria media), galium (catchweed bedstraw, Galium aparine), bromegrass, downy (downy bromegrass, Bromus tectorum), field poppy (Papaver rhoeas), field violet (Viola arvensis), foxtail, green (green foxtail, Setaria viridis), deadnettle (henbit deadnettle, Lamium amplexicaule), ryegrass, Italian (Italian ryegrass, Lolium multiflorum), kochia (Kochia scoparia), lambsquarters (Chenopodium album), oilseed rape (Brassica napus), pigweed (Amaranthus retroflexus), chamomile (scentless chamomile, Matricaria inodora), Russian thistle (Salsola kali), speedwell (bird's-eye speedwell, Veronica persica), barley, spring (spring barley, Hordeum vulgare), wheat, spring (spring wheat, Triticum aestivum), buckwheat, wild (wild buckwheat, Polygonum convolvulus), mustard, wild (wild mustard, Sinapis arvensis), oat, wild (wild oat, Avena fatua), radish, wild (wild radish, Raphanus raphanistrum), […]), barley, winter (winter barley, Hordeum vulgare), and wheat, winter (winter wheat, Triticum aestivum) were planted into a silt loam soil and treated preemergence with test chemicals formulated in a non-phytotoxic solvent mixture which included a surfactant. At the same time, these species were planted in pots containing Redi-Earth® planting medium (Scotts Company, 14111 Scottslawn Road, Marysville, Ohio 43041) comprising spaghnum peat moss, vermiculite, wetting agent and starter nutrients and treated with postemergence applications of the test chemicals formulated in the same manner. Plants ranged in height from 2 to 18 cm (1- to 4-leaf stage). Treated plants and controls were maintained in a controlled growth environment for 7 to 21 days after which time all species were compared to controls and visually evaluated. Plant response ratings, summarized in Table D, are based on a scale of 0 to 100 where 0 is no effect and 100 is complete control. A dash (-) response means no test result.

waterhemp = assay: Test E preemergence herbicide test; format: in vivo, Amaranthus rudis; design: key: 0 = no effect, 100 = complete control
Source text: (§1) Seeds of plant species selected from corn (Zea mays), soybean (Glycine max), velvetleaf (Abutilon theophrasti), lambsquarters (Chenopodium album), wild poinsettia (Euphorbia heterophylla), pigweed, palmer (palmer pigweed, Amaranthus palmeri), waterhemp (common waterhemp, Amaranthus rudis), surinam grass (Brachiaria decumbens), crabgrass, large (large crabgrass, Digitaria sanguinalis), crabgrass, Brazil (Brazilian crabgrass, Digitaria horizontalis), panicum, fall (fall panicum, Panicum dichotomiflorum), foxtail, giant (giant foxtail, Setaria faberii), foxtail, green (green foxtail, Setaria viridis), goosegrass (Eleusine indica), johnsongrass (Sorghum halepense), ragweed (common ragweed, Ambrosia elatior), barnyardgrass (Echinochloa crus-galli), sandbur (southern sandbur, Cenchrus echinatus), arrowleaf […] rhombifolia), ryegrass, Italian (Italian ryegrass, Lolium multiflorum), dayflower, VA (Virginia dayflower, Commelina virginica), field bindweed (Convolvulus arvensis), morningglory (Ipomoea coccinea), nightshade (eastern black nightshade, Solanum ptycanthum), kochia (Kochia scoparia), nutsedge, yellow (yellow nutsedge, Cyperus esculentus), cocklebur (common cocklebur, Xanthium strumarium), smartweed (ladysthumb smartweed, Polygonum Persicaria) and beggarticks (hairy beggarticks, Bidens pilosa), were planted into a silt loam soil and treated preemergence with test chemicals formulated in a non-phytotoxic solvent mixture which included a surfactant. Treated plants and controls were maintained in a greenhouse for 21 days, after which time all species were compared to controls and visually evaluated. Plant response ratings, summarized in Table E, are based on a scale of 0 to 100 where 0 is no effect and 100 is complete control. A dash (-) response means no test result.

dayflower, VA = assay: Test E preemergence herbicide test; format: in vivo, Commelina virginica; design: key: 0 = no effect, 100 = complete control
Source text: as §1

corn = assay: Test E preemergence herbicide test; format: in vivo, Zea mays; design: key: 0 = no effect, 100 = complete control
Source text: as §1

velvetleaf = assay: Test E preemergence herbicide test; format: in vivo, Abutilon theophrasti; design: key: 0 = no effect, 100 = complete control
Source text: as §1

rice, transplanted = assay: Test F flood (paddy) test; format: in vivo, Oryza sativa cv. Japonica—M202; conditions: 21 d, scale 0-100
Source text: (§2) Three plastic pots (ca. 16-cm diameter) per rate were partially filled with sterilized Tama silt loam soil comprising a 35:50:15 ratio of sand, silt and clay and 2.6% organic matter. Separate plantings for each of the three pots were as follows. Seeds from the U.S. of monochoria (Monochoria vaginalis), sedge, umbrella (small-flower umbrella sedge, Cyperus difformis), bulrush, […] bulrush, Scirpus juncoides), and […] (purple […] coccinea), were planted into one 16-cm pot for each rate. Seeds from the U.S. of flatsedge, rice (rice flatsedge, Cyperus iria), sprangletop, Brdd. (bearded sprangletop, Leptochloa fascicularis), one stand of 9 or 10 water seeded rice seedlings (Rice, W.S. Jap, Oryza sativa cv. 'Japonica-[…]' or Rice, W.S. Ind, 'Indica'), and two stands of 3 or 4 seedlings of rice, transplanted (transplanted rice, Oryza sativa cv. 'Japonica-[…]') were planted into one 16-cm pot for each rate. Seeds from the U.S. of barnyardgrass (Echinochloa crus-galli), […] (common […], Alisma plantago-aquatica), and watergrass, late (late watergrass, Echinochloa oryzicola) were planted into one 16-cm pot for each rate. Plantings were sequential so that crop and weed species were at the 2.0 to 2.5-leaf stage at time of treatment. Potted plants were grown in a greenhouse with day/night temperature settings of 30/27° C., and supplemental balanced lighting was provided to maintain a 16-h photoperiod. Test pots were maintained in the greenhouse until test completion. At time of treatment, test pots were flooded to 3 cm above the soil surface, treated by application of test compounds directly to the paddy water, and then maintained at that water depth for the duration of the test. Effects of treatments on rice and weeds were visually evaluated by comparison to untreated controls after 21 d. Plant response ratings, summarized in Table F, are based on a scale of 0 to 100 where 0 is no effect and 100 is complete control. A dash (-) response means no test result.

monochoria = assay: Test F flood (paddy) test; format: in vivo, Monochoria vaginalis; conditions: 21 d, scale 0-100
Source text: as §2

O=C1NCC(c2cccc(C(F)(F)F)c2)C1C(=O)Nc1cccc(F)c1F (centres unmarked) [Compound 241]
55: Plant response rating, Oat, Wild (oat, wild; 250 g ai/ha)
20: Plant response rating, Oat, Wild (oat, wild; 125 g ai/ha)
15: Plant response rating, Oat, Wild (oat, wild; 31 g ai/ha) | Plant response rating, Oat, Wild (oat, wild; 62 g ai/ha)

O=C1NCC(c2cc(F)c(F)c(F)c2)C1C(=O)Nc1ccccc1C(F)(F)F (racemic) [Compound 33]
0: Plant response rating (oat, wild; 16 g ai/ha) | Plant response rating (oat, wild; 31 g ai/ha) | Plant response rating (oat, wild; 62 g ai/ha) | Plant response rating (oat, wild; 125 g ai/ha) | Plant response rating (oat, wild; 250 g ai/ha)

O=C1NCC(c2ccc(F)cc2)C1C(=O)Nc1ccccc1F (racemic) [Compound 16]
0: Plant response rating, Waterhemp (waterhemp; 16 g ai/ha) | Plant response rating, Waterhemp (waterhemp; 31 g ai/ha) | Plant response rating, Waterhemp (waterhemp; 62 g ai/ha) | Plant response rating, Waterhemp (waterhemp; 125 g ai/ha) | Plant response rating, Waterhemp (waterhemp; 250 g ai/ha) | Plant response rating, Dayflower, VA (dayflower, VA; 16 g ai/ha) | Plant response rating, Dayflower, VA (dayflower, VA; 62 g ai/ha) | Plant response rating, Dayflower, VA (dayflower, VA; 125 g ai/ha) | Plant response rating, Corn (corn; 16 g ai/ha) | Plant response rating, Corn (corn; 31 g ai/ha) | Plant response rating, Corn (corn; 62 g ai/ha) | Plant response rating, Corn (corn; 125 g ai/ha) | Plant response rating, Corn (corn; 250 g ai/ha) | Plant response rating, Velvetleaf (velvetleaf; 16 g ai/ha) | Plant response rating, Velvetleaf (velvetleaf; 31 g ai/ha) | Plant response rating, Velvetleaf (velvetleaf; 62 g ai/ha) | Plant response rating, Velvetleaf (velvetleaf; 125 g ai/ha) | Plant response rating, Velvetleaf (velvetleaf; 250 g ai/ha)

O=C1NCC(c2cc(F)c(F)c(F)c2)C1C(=O)Nc1ccccc1F (racemic) [Compound 34]
0: Plant response rating (oat, wild; 16 g ai/ha) | Plant response rating (oat, wild; 31 g ai/ha) | Plant response rating (oat, wild; 62 g ai/ha) | Plant response rating (oat, wild; 125 g ai/ha) | Plant response rating (oat, wild; 250 g ai/ha)

O=C1NCC(c2ccc(C(F)(F)F)cc2)C1C(=O)Nc1ccc(F)c(F)c1F (centres unmarked) [Compound 232]
80: Plant response rating, Waterhemp (waterhemp; 62 g ai/ha) | Plant response rating, Velvetleaf (velvetleaf; 250 g ai/ha)
35: Plant response rating, Waterhemp (waterhemp; 31 g ai/ha)
0: Plant response rating, Dayflower, VA (dayflower, VA; 31 g ai/ha) | Plant response rating, Dayflower, VA (dayflower, VA; 62 g ai/ha) | Plant response rating, Dayflower, VA (dayflower, VA; 125 g ai/ha) | Plant response rating, Corn (corn; 31 g ai/ha) | Plant response rating, Corn (corn; 62 g ai/ha) | Plant response rating, Corn (corn; 125 g ai/ha) | Plant response rating, Corn (corn; 250 g ai/ha) | Plant response rating, Velvetleaf (velvetleaf; 31 g ai/ha) | Plant response rating, Velvetleaf (velvetleaf; 62 g ai/ha)
85: Plant response rating, Waterhemp (waterhemp; 125 g ai/ha)
20: Plant response rating, Velvetleaf (velvetleaf; 125 g ai/ha)
95: Plant response rating, Waterhemp (waterhemp; 250 g ai/ha)
10: Plant response rating, Dayflower, VA (dayflower, VA; 250 g ai/ha)

CN1CC(c2ccc(F)cc2)C(C(=O)Nc2cccc(F)c2F)C1=O (centres unmarked) [Compound 271]
0: Plant response rating, Rice, Transplanted (rice, transplanted; 64 g ai/ha) | Plant response rating, Rice, Transplanted (rice, transplanted; 125 g ai/ha) | Plant response rating, Rice, Transplanted (rice, transplanted; 250 g ai/ha)
100: Plant response rating, Monochoria (monochoria; 125 g ai/ha) | Plant response rating, Monochoria (monochoria; 250 g ai/ha) | Plant response rating, Monochoria (monochoria; 500 g ai/ha)
15: Plant response rating, Rice, Transplanted (rice, transplanted; 500 g ai/ha)
85: Plant response rating, Monochoria (monochoria; 64 g ai/ha)
